# Test results from patent US11207312B2, “Metallo-beta-lactamase inhibitors and methods of use thereof” (priority 2017, dated 2021).
# Columns and labels:
# NDM-1 = NDM-1 (Klebsiella pneumoniae, UniProt C7C422); test: biochemical; type: biochemical; conditions: CCF2-FA fluorescence assay, 2 hours at 25° C.
# Outline: (§1)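 Each enzyme (final 1 pM NDM-1, 2 pM IMP-1, 30 pM VIM-1) was incubated with test inhibitor (20 μM to 0.00063 μM) and 1.25 μM CCF2-FA for 2 hours at 25° C in zinc-supplemented phosphate buffer, pH 7. Fluorescence at 460 nm was then read and IC50 fitted with four parameters.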
# IMP-1 = IMP-1 (Serratia marcescens, UniProt P52699); test: biochemical; conditions: CCF2-FA fluorescence assay, 2 hours at 25° C.; read-out: IMP1 IC50
# Chain of IMP-1 (P52699 whole entry, looked up, species assumed): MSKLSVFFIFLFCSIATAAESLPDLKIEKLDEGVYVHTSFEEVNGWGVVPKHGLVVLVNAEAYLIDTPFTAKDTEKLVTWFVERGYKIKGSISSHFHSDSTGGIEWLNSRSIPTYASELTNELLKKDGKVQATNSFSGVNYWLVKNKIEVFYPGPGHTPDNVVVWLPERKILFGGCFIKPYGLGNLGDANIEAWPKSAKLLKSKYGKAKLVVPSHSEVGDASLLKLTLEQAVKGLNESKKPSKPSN
# Outline: as §1
# VIM-1 = VIM-1 (Pseudomonas aeruginosa (strain ATCC 15692 / DSM 22644 / CIP 104116 / JCM 14847 / LMG 12228 / 1C / PRS 101 / PAO1), UniProt A0A0F7KYQ8); test: biochemical; conditions: CCF2-FA fluorescence assay, 2 hours at 25° C.; read-out: VIM1 IC50
# Outline: as §1
# VIM-2 = VIM-2 (Escherichia coli, UniProt Q5U7L7); test: biochemical; conditions: CCF2-FA fluorescence assay; read-out: VIM2 IC50
# [1] = tested on: Escherichia coli expressing NDM-1 (CLB30016); type: cell-based; conditions: with imipenem 1 μg/ml; 95% inhibition of bacterial growth
# Outline: (§2)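 Read-out is absorbance after 22–24 h at 35 °C, with MITC95 taken as the lowest inhibitor concentration that, alongside imipenem at 1 μg/ml, suppresses 95% of bacterial growth. Inocula came from saline-suspended colonies diluted 1:100 into 1.1× CAMHB.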
# [2] = tested on: Klebsiella pneumoniae expressing VIM-1 (IHMA599644); type: cell-based; conditions: with imipenem 1 μg/ml; 95% inhibition of bacterial growth
# Outline: as §2
# [3] = tested on: Serratia marcescens expressing IMP-1 (CL5741); type: cell-based; conditions: with imipenem 1 μg/ml; 95% inhibition of bacterial growth
# Outline: as §2
# [4] = tested on: P. aeruginosa MB9798 (efflux+, IMP-1 plasmid); conditions: for MB9798 MITC95 P. aeruginosa uM Efflux WT: efflux + (MB9798) strain, imipenem at 2 μg/mL, in the presence of a class A, C, D serine β-lactamase inhibitor closely related to relebactam; for Efflux ratio: fold difference between efflux+ (MB9798) and efflux− (MB9799) strains
# Outline: (§3)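 Isogenic P. aeruginosa PAO1 strains (efflux+ and multiple-efflux-pump-disrupted) carrying plasmid IMP-1, with inducible AmpC, tested by broth microdilution. Imipenem and/or ceftazidime fixed, usually at CLSI breakpoint, plus fixed class A/C β-lactamase inhibitor; titrated MBL inhibitor concentration restoring susceptibility recorded and compared between strains as efflux fold difference.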
# [5] = tested on: P. aeruginosa MB9799 (efflux-, IMP-1 plasmid); type: cell-based, Pseudomonas aeruginosa; conditions: efflux − (MB9799) strain; imipenem at 2 μg/mL; in the presence of a class A, C, D serine β-lactamase inhibitor closely related to relebactam
# Outline: as §3
# Chain of NDM-1 (C7C422 whole entry, looked up, species assumed): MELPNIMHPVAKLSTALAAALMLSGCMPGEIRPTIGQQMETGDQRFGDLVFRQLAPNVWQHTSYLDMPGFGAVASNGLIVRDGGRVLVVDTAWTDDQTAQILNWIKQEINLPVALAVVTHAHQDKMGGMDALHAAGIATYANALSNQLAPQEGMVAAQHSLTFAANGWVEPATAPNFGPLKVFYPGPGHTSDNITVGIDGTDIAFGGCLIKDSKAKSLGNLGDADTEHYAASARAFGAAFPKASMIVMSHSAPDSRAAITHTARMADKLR
Structure (SMILES),IC50 (NDM-1),IC50 (IMP-1),IC50 (VIM-1),IC50 (VIM-2),CLB30016 E. coli MITC95 NDM [1],IHMA599644 K. pneumoniae MITC95 VIM [2],CL5741 S. marcescens MITC95 IMP [3],MB9798 MITC95 P. aeruginosa uM Efflux WT [4],Efflux ratio [4],MB9799 MITC95 P. aeruginosa uM Efflux Mutant [5]
"NS(=O)(=O)c1c(S(=O)(=O)N[C@@H]2CCNC2)ccc(N2CCNC(CO)CC2)c1-c1nn[nH]n1 (stereo partly drawn) [Example 127, 4-(5-(hydroxymethyl)-1,4-diazepan-1-yl)-N1-((R)-pyrrolidin-3-yl)-3-(2H-tetrazol-5-yl)benzene-1,2-disulfonamide]",18.9 nM,33.7 nM,1.25 nM,24.6 nM,0.39 µM,0.78 µM,0.78 µM,3.13 µM,4.00,0.78 µM
"NCC1CCN(c2ccc(S(=O)(=O)C[C@H](O)CN)c(S(N)(=O)=O)c2-c2nn[nH]n2)CC1 [Example 128, (R)-6-((3-amino-2-hydroxypropyl)sulfonyl)-3-(4-(aminomethyl)piperidin-1-yl)-2-(2H-tetrazol-5-yl)benzenesulfonamide]",8.71 nM,3.65 nM,0.94 nM,13.3 nM,0.39 µM,0.78 µM,0.78 µM,0.78 µM,2.00,0.39 µM
"NC[C@@H](O)CNS(=O)(=O)c1ccc(N2CCN3CCOCC3C2)c(-c2nn[nH]n2)c1S(N)(=O)=O (stereo partly drawn) [Example 129, N1-((R)-3-amino-2-hydroxypropyl)-4-(hexahydropyrazino [2,1-c][1,4]oxazin-8(1H)-yl)-3-(2H-tetrazol-5-yl)benzene-1,2-disulfonamide 2,2,2-trifluoroacetate]",2.7 nM,4.72 nM,3.53 nM,6.44 nM,6.25 µM,12.50 µM,3.13 µM,6.25 µM,2.00,3.13 µM
"NC[C@@H](O)CNS(=O)(=O)c1ccc(N2CCC[C@@H](NCCO)C2)c(-c2nn[nH]n2)c1S(N)(=O)=O [Example 130, N1-((R)-3-amino-2-hydroxypropyl)-4-((R)-3-((2-hydroxyethyl)amino)piperidin-1-yl)-3-(2H-tetrazol-5-yl)benzene-1,2-disulfonamide bis(2,2,2-trifluoroacetate)]",32 nM,128 nM,4.21 nM,5.47 nM,0.78 µM,1.56 µM,3.13 µM,12.50 µM,4.00,3.13 µM
"NCCNS(=O)(=O)C1CCN(c2ccc(S(=O)(=O)NC[C@H](O)CN)c(S(N)(=O)=O)c2-c2nn[nH]n2)CC1 [Example 131, (R)-N1-(3-amino-2-hydroxypropyl)-4-(4-(N-(2-aminoethyl)sulfamoyl)piperidin-1-yl)-3-(2H-tetrazol-5-yl)benzene-1,2-disulfonamide]",0.79 nM,0.87 nM,0.11 nM,1.05 nM,0.39 µM,1.56 µM,0.78 µM,0.78 µM,1.00,0.78 µM
"NCC(O)C1CCN(c2ccc(S(=O)(=O)NC[C@H](O)CN)c(S(N)(=O)=O)c2-c2nn[nH]n2)CC1 (stereo partly drawn) [Example 132, 4-(4-(2-amino-1-hydroxyethyl)piperidin-1-yl)-N1-((R)-3-amino-2-hydroxypropyl)-3-(2H-tetrazol-5-yl)benzene-1,2-disulfonamide]",1.34 nM,2.49 nM,0.19 nM,4.28 nM,0.39 µM,1.56 µM,0.78 µM,0.78 µM,1.00,0.78 µM
